In patent US6656911B2, “Serine protease inhibitors” (Cortech, Inc., priority 1994, dated 2003):
pKi: −log10 of the molar value.

Target: T1, elastase derived from human sputum (HSE) (Homo sapiens, UniProt P08246)
T1 construct: prepared from commercially available HSE (875 U/mg protein, SE-563, Elastin Product Co., Inc., Missouri, USA); purchased Elastin Product Co., Inc., Missouri, USA SE-563; host or cells: human sputum (natural enzyme)
T1 sequence (P08246 30-247 limits assumed): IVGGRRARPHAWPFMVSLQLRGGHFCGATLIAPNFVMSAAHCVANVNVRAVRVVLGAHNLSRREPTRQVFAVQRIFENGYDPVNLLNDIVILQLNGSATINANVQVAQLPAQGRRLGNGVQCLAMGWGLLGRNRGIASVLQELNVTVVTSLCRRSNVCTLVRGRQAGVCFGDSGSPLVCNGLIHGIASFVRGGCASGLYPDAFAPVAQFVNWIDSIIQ
Test: In vitro inhibition of elastase (ONO-PO series)
Format: biochemical
Settings: substrate N-methoxysuccinyl-Ala-Ala-Pro-Val-p-nitroaniline, 37° C., pH 8.0, IC50 converted to Ki by Dixson plot

Row | pKi | Structure (SMILES)
1 | 7.97 | CC(C)c1nnc(C(=O)[C@@H](NC(=O)Cn2c(-c3ccc(F)cc3)ncc(N)c2=O)C(C)C)o1 [ONO-PO-705, 2-[5-Amino-6-oxo-2-(4-fluorophenyl)-1,6-dihydro-1-pyrimidinyl]-N-[1-(2-[5-isopropyl-1,3,4-oxadiazolyl]carbonyl)-2-(S)-methylpropyl]acetamide]
2 | 8.17 | CCCCc1nnc(C(=O)[C@@H](NC(=O)Cn2c(-c3ccc(F)cc3)ncc(N)c2=O)C(C)C)o1 [ONO-PO-706, 2-[5-Amino-6-oxo-2-(4-fluorophenyl)-1,6-dihydro-1-pyrimidinyl]-N-[1-(2-[5-butyl-1,3,4-oxadiazolyl]carbonyl)-2-(S)-methylpropyl]acetamide]
3 | 6.14 | CC(C)C[C@@H]1NC(=O)N(CC(=O)N[C@H](C(=O)c2nnc(C(C)(C)C)o2)C(C)C)C1=O [ONO-PO-708, 4-(S)-(2-Isobutyl)-2,5-imidazolidinedione-N-[1-(2-[5-tert-butyl-1,3,4-oxadiazolyl]carbonyl)-2-(S)-methylpropyl]acetamide]
4 | 7.59 | CC(C)C[C@@H]1NC(=O)N(CC(=O)N[C@H](C(=O)c2nnc(C(C)(C)c3ccccc3)o2)C(C)C)C1=O [ONO-PO-709, 4-(S)-(2-Isobutyl)-2,5-imidazolidinedione-N-[1-(2-[5-(α,α-dimethylbenzyl)-1,3,4-oxadiazolyl]carbonyl)-2-(S)-methylpropyl]acetamide]
5 | 8.62 | CC(C)[C@H](NC(=O)[C@@H]1CCCN1C(=O)[C@@H](NS(C)(=O)=O)C(C)C)C(=O)c1nnc(C(C)(C)c2ccccc2)o1 [ONO-PO-710, Methylsulfonyl-L-valyl-N-[1-(2-[5-(α,α-dimethylbenzyl)-1,3,4-oxadiazolyl]carbonyl)-2-(S)-methylpropyl]-L-prolinamide]
6 | 8.59 | CC(C)[C@H](NC(=O)Cn1c(-c2ccccc2)ncc(N)c1=O)C(=O)c1nnc(C(C)(C)c2ccccc2)o1 [ONO-PO-711, 2-[5-Amino-6-oxo-2-phenyl-1,6-dihydro-1-pyrimidinyl]-N-[1-(2-[5-(α,α-dimethylbenzyl)-1,3,4-oxadiazolyl]carbonyl)-2-(S)-methylpropyl]acetamide]
7 | 7.78 | CC(C)[C@H](NC(=O)Cn1c(-c2cccnc2)ncc(N)c1=O)C(=O)c1nnc(C(C)(C)C)o1 [ONO-PO-712, 2-[5-Amino-6-oxo-2-(3-pyridyl)-1,6-dihydro-1-pyrimidinyl]-N-[1-(2-[5-tert-butyl-1,3,4-oxadiazolyl]carbonyl)-2-(S)-methylpropyl]acetamide]
8 | 7.92 | CC(C)[C@H](NC(=O)[C@@H]1CCCN1C(=O)[C@@H](NS(C)(=O)=O)C(C)C)C(=O)c1nnc(C(C)(C)C)o1 [ONO-PO-713]
9 | 8.45 | CC(C)[C@H](NC(=O)Cn1c(-c2cccnc2)ncc(N)c1=O)C(=O)c1nnc(C(C)(C)c2ccccc2)o1 [ONO-PO-715, 2-[5-Amino-6-oxo-2-(3-pyridyl)-1,6-dihydro-1-pyrimidinyl]-N-[1-(2-[5-(α,α-dimethylbenzyl)-1,3,4-oxadiazolyl]carbonyl)-2-(S)-methylpropyl]acetamide]
10 | 6.08 | CC(C)[C@H](NC(=O)CN1C(=O)N[C@H](C(C)C)C1=O)C(=O)c1nnc(C(C)(C)C)o1 [ONO-PO-719, 4-(R)-Isopropyl-2,5-imidazolidinedione-N-[1-(2-[5-tert-butyl-1,3,4-oxadiazolyl]carbonyl)-2-(S)-methylpropyl]acetamide]
11 | 7.59 | CC(C)[C@H](NC(=O)CN1C(=O)N[C@H](C(C)C)C1=O)C(=O)c1nnc(C(C)(C)c2ccccc2)o1 [ONO-PO-720, 4-(R)-Isopropyl-2,5-imidazolidinedione-N-[1-(2-[5-(α,α-dimethylbenzyl)-1,3,4-oxadiazolyl]carbonyl)-2-(S)-methylpropyl]acetamide]
12 | 8.47 | CC(C)[C@H](NC(=O)Cn1c(-c2ccc(F)cc2)nccc1=O)C(=O)c1nnc(C(C)(C)c2ccccc2)o1 [ONO-PO-722, 2-[6-Oxo-2-(4-fluorophenyl)-1,6-dihydro-1-pyrimidinyl]-N-[1-(2-[5-(α,α-dimethylbenzyl)-1,3,4-oxadiazolyl]carbonyl)-2-(S)-methylpropyl]acetamide]
13 | 6.79 | CC(C)[C@H](NC(=O)CN1C(=O)N[C@H](Cc2c[nH]c3ccccc23)C1=O)C(=O)c1nnc(C(C)(C)C)o1 [ONO-PO-723, 4-(R)-(3-Indolemethylene)-2,5-imidazolidinedione-N-[1-(2-[5-tert-butyl-1,3,4-oxadiazolyl]carbonyl)-2-(S)-methylpropyl]acetamide]
14 | 7.84 | CC(C)[C@H](NC(=O)CN1C(=O)N[C@H](Cc2c[nH]c3ccccc23)C1=O)C(=O)c1nnc(C(C)(C)c2ccccc2)o1 [ONO-PO-724, 4-(R)-(3-Indolemethylene)-2,5-imidazolidinedione-N-[1-(2-[5-(α,α-dimethylbenzyl)-1,3,4-oxadiazolyl]carbonyl)-2-(S)-methylpropyl]acetamide]
15 | 5.37 | CC(C)[C@H](NC(=O)Cn1c(-c2ccccc2)cccc1=O)C(=O)c1nnc(C(C)(C)C)o1 [ONO-PO-725, 2-[6-Oxo-2-phenyl-1,6-dihydro-1-pyridinyl]-N-[1-(2-[5-tert-butyl-1,3,4-oxadiazolyl]carbonyl)-2-(S)-methylpropyl]acetamide]
16 | 6.23 | CC(C)[C@H](NC(=O)Cn1c(-c2ccccc2)cccc1=O)C(=O)c1nnc(C(C)(C)c2ccccc2)o1 [ONO-PO-726, 2-[6-Oxo-2-phenyl-1,6-dihydro-1-pyridinyl]-N-[1-(2-[5-(α,α-dimethylbenzyl)-1,3,4-oxadiazolyl]carbonyl)-2-(S)-methylpropyl]acetamide]
17 | 8.06 | CC(C)[C@H](NC(=O)Cn1c(-c2ccccc2)ncc(N)c1=O)C(=O)c1nnc(C2(C)CC2)o1 [ONO-PO-728, 2-[5-Amino-6-oxo-2-phenyl-1,6-dihydro-1-pyrimidinyl]-N-[1-(2-[5-(1-methylcyclopropyl)-1,3,4-oxadiazolyl]carbonyl)-2-(S)-methylpropyl]acetamide]
18 | 7.63 | CC(C)[C@H](NC(=O)Cn1c(-c2ccccc2)nccc1=O)C(=O)c1nnc(C(C)(C)C)o1 [ONO-PO-730, 2-[6-Oxo-2-phenyl-1,6-dihydro-1-pyrimidinyl]-N-[1-(2-[5-tert-butyl-1,3,4-oxadiazolyl]carbonyl)-2-(S)-methylpropyl]acetamide]
19 | 8.40 | CC(C)[C@H](NC(=O)Cn1c(-c2ccccc2)nccc1=O)C(=O)c1nnc(C(C)(C)c2ccccc2)o1 [ONO-PO-731, 2-[6-Oxo-2-phenyl-1,6-dihydro-1-pyrimidinyl]-N-[1-(2-[5-α,α-dimethylbenzyl-1,3,4-oxadiazolyl]carbonyl)-2-(S)-methylpropyl]acetamide]
20 | 7.21 | CC(C)[C@@H](NC(=O)Cn1c(-c2ccccc2)nccc1=O)C(=O)c1nnc(C(C)(C)C)o1 [ONO-PO-732, 2-[6-Oxo-2-phenyl-1,6-dihydro-1-pyrimidinyl]-N-[1-(2-[5-tert-butyl-1,3,4-oxadiazolyl]carbonyl)-2-(R)-methylpropyl]acetamide]
21 | 7.36 | CC(C)[C@H](NC(=O)Cn1c(-c2ccc(F)cc2)nccc1=O)C(=O)c1nnc(C2(C)CC2)o1 [ONO-PO-734, 2-[6-Oxo-2-(4-fluorophenyl)-1,6-dihydro-1-pyrimidinyl]-N-[1-(2-[5-(1-methylcyclopropyl)-1,3,4-oxadiazolyl]carbonyl)-2-(S)-methylpropyl]acetamide]
22 | 7.58 | CC(C)[C@H](NC(=O)Cn1c(-c2ccccc2)nccc1=O)C(=O)c1nnc(C2(C)CC2)o1 [ONO-PO-735, 2-[6-Oxo-2-phenyl-1,6-dihydro-1-pyrimidinyl]-N-[1-(2-[5-(1-methylcyclopropyl)-1,3,4-oxadiazolyl]carbonyl)-2-(S)-methylpropyl]acetamide]

Row | Structure (SMILES) | pKi
23 | CC(C)[C@H](NC(=O)CN1C(=O)CN=C(c2ccc(Cl)cc2)c2ccccc21)C(=O)c1nnc(C(C)(C)C)o1 [ONO-PO-717, 2-Oxo-5-(4-chlorophenyl)-1,4-benzodiazepine-N-[1-(2-[5-tert-butyl-1,3,4-oxadiazolyl]carbonyl)-2-(S)-methylpropyl]acetamide] | 7.24
